ChEMBL document CHEMBL1136378, “Novel 6,7-diphenyl-2,3,8,8a-tetrahydro-1H-indolizin-5-one analogues as cytotoxic agents” (Bioorg Med Chem Lett, 2003)

Legend:
[1] = Average growth inhibition against cell lines was calculated; type: functional
[2] = test system: NCI/ADR-RES; test: In vitro cytotoxic activity tested against human breast cancer MCF/ADR cell line
[3] = test system: A498; test: In vitro cytotoxic activity was tested against human renal cancer (A498) cell line; type: functional
[4] = test system: NCI-H522; test: In vitro cytotoxic activity tested against human lung cancer (H-522) cell line
[5] = test system: M14; test: In vitro cytotoxic activity was tested against human melanoma cancer (M14) cell line; type: functional
[6] = test system: DU-145; test: In vitro cytotoxic activity tested against human prostate cancer (DU145) cell line; type: functional
[7] = test system: SK-OV-3; test: In vitro cytotoxic activity tested against human ovarian cancer (SK-OV3) cell line; type: functional
[8] = test system: U-251; test: In vitro cytotoxic activity tested against human CNS (U251) cell line; type: functional
[9] = test system: SW-620; test: In vitro cytotoxic activity tested against human colon cancer (SW620) cell line; type: functional
[10] = Cmax value was determined at a dose of 200 mg/kg (i.p.) in Mice; type: ADME, organism-based; set-up: dose 200 mg/kg, route intraperitoneal; details: mouse, in vivo, ip
[11] = Tmax value was determined at a dose of 200 mg/kg (i.p.) in Mice; type: ADME, organism-based; set-up: dose 200 mg/kg, route intraperitoneal; details: mouse, in vivo, ip
[12] = Area under curve was determined at a dose of 200 mg/kg (i.p.) in Mice; type: ADME, organism-based; set-up: dose 200 mg/kg, route intraperitoneal; details: mouse, in vivo, ip
[13] = Half life beta(2,4,6,8h) value was determined at a dose of 200 mg/kg (i.p.) in Mice; type: ADME, organism-based; set-up: dose 200 mg/kg, route intraperitoneal; details: mouse, in vivo, ip, read-out: T1/2 beta (converted)

Row | Compound | GI50 [1] | GI50 [2] | GI50 [3] | GI50 [4] | GI50 [5] | GI50 [6] | GI50 [7] | GI50 [8] | GI50 [9] | Cmax [10] | Tmax [11] | AUC [12] | half-life [13]
1 | COc1cc(C2=C(c3ccc(SC)cc3)CC3CCCN3C2=O)ccc1O (configuration not stated) | 7750 nM | 8000 nM | 5000 nM | 7000 nM | 9000 nM | 8000 nM | 8000 nM | 8000 nM | 9000 nM | – | – | – | –
2 | CSc1ccc(C2=C(c3ccc(OCC4CO4)cc3)C(=O)N3CCCC3C2)cc1 (configuration not stated) | 2600 nM | 10000 nM | 500 nM | 30 nM | 90 nM | 500 nM | 10000 nM | 80 nM | 90 nM | – | – | – | –
3 | COc1ccc(C2=C(c3ccc(SC)cc3)CC3CCCN3C2=O)cc1 (configuration not stated) | 2400 nM | 5000 nM | 800 nM | 800 nM | 4000 nM | 900 nM | 3000 nM | 2000 nM | 3000 nM | – | – | – | –
4 | CSc1ccc(C2=C(c3ccc(C)cc3)C(=O)N3CCCC3C2)cc1 (configuration not stated) | 3000 nM | 600 nM | 4000 nM | 900 nM | 6000 nM | 600 nM | 9000 nM | 400 nM | 3000 nM | 8020 nM | 0.25 h | 38.5 µM·h | 6.24 h
5 | COc1ccc(C2=C(c3ccc(SC)cc3)CC3CCCN3C2=O)cc1OC(=O)C1CCCN1C(=O)OC(C)(C)C (configuration not stated) | 6000 nM | 4000 nM | – | 5000 nM | – | 5000 nM | 10000 nM | 2000 nM | 10000 nM | – | – | – | –
6 | COc1ccc(C2=C(c3ccc(SC)cc3)CC3CCCN3C2=O)cc1C (configuration not stated) | 2100 nM | 400 nM | 400 nM | 100 nM | 200 nM | 900 nM | 15000 nM | 90 nM | 500 nM | – | – | – | –
7 | CSc1ccc(C2=C(c3ccc(OCCN4CCOCC4)cc3)C(=O)N3CCCC3C2)cc1 (configuration not stated) | 11500 nM | 9000 nM | 9000 nM | 7000 nM | 20000 nM | 20000 nM | 9000 nM | 9000 nM | 9000 nM | – | – | – | –
8 | CSc1ccc(C2=C(c3ccc(F)c(C)c3)C(=O)N3CCCC3C2)cc1 (configuration not stated) | 1100 nM | 500 nM | 300 nM | 500 nM | 800 nM | 500 nM | 300 nM | 200 nM | 600 nM | – | – | – | –
9 | CSc1ccc(C2=C(c3ccc(F)cc3)C(=O)N3CCCC3C2)cc1 (configuration not stated) | 4100 nM | 800 nM | 100 nM | 250 nM | 600 nM | 500 nM | 30000 nM | 90 nM | 500 nM | 990 nM | 1.5 h | 3.88 µM·h | 2.59 h
10 | CSc1ccc(C2=C(c3ccc(O)cc3)C(=O)N3CCCC3C2)cc1 (configuration not stated) | > 100000 nM | > 100000 nM | > 100000 nM | > 100000 nM | > 100000 nM | > 100000 nM | > 100000 nM | > 100000 nM | > 100000 nM | – | – | – | –
11 | CSc1ccc(C2=C(c3ccc(C)c(C)c3)C(=O)N3CCCC3C2)cc1 (configuration not stated) | 1700 nM | 800 nM | 300 nM | 300 nM | 800 nM | 500 nM | 300 nM | 10000 nM | 700 nM | – | – | – | –
12 | CSc1ccc(C2=C(c3ccc(SC)cc3)C(=O)N3CCCC3C2)cc1 (configuration not stated) | 8100 nM | 8000 nM | 15000 nM | 15000 nM | 5000 nM | 8000 nM | 2000 nM | 5000 nM | 7000 nM | 860 nM | 1 h | 2.5 µM·h | –
